Test results reported in the supplement of paper PMC10307832.

Tests used:
Assay in all cases: relative viability (nuclei count vs DMSO), 5 days (fraction); higher = more cells survive
TPCA-1 + Trametinib = compound: C1=CC(=CC=C1C2=CC(=C(S2)NC(=O)N)C(=O)N)F [TPCA-1] + CC(=O)Nc1cccc(-n2c(=O)n(C3CC3)c(=O)c3c(Nc4ccc(I)cc4F)n(C)c(=O)c(C)c32)c1 [Trametinib] (partner 0.02 µM)
In short: (§1)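 One day after seeding in 1536-well plates, lung cancer cell lines were dosed by pin tool. Dosing was either single-drug or a fixed anchor-drug dose plus five library-drug doses (not always all listed) in √10 steps. After 5 days, nuclei were stained in one fix-and-stain step and counted on 4× images, and relative viability is the nuclei count of treated wells over that of vehicle wells, given as the median of duplicate plates.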

TPCA-1 + Olaparib = compound: C1=CC(=CC=C1C2=CC(=C(S2)NC(=O)N)C(=O)N)F [TPCA-1] + O=C(c1cc(Cc2n[nH]c(=O)c3ccccc23)ccc1F)N1CCN(C(=O)C2CC2)CC1 [Olaparib] (partner 8 µM)
In short: as §1

[1] = compound: C1/C(=C\C2=CC=CS2)/C(=O)/C(=C/C3=CC=CS3)/C1 + Cc1nc(NC(=O)N2CCC[C@H]2C(N)=O)sc1-c1ccnc(C(C)(C)C(F)(F)F)c1 [Alpelisib] (partner 2 µM)
In short: as §1

Lestaurtinib + Lapatinib = compound: C[C@]12O[C@H](C[C@]1(O)CO)n1c3ccccc3c3c4c(c5c6ccccc6n2c5c31)CNC4=O [Lestaurtinib] + CS(=O)(=O)CCNCc1ccc(-c2ccc3ncnc(Nc4ccc(OCc5cccc(F)c5)c(Cl)c4)c3c2)o1 [Lapatinib] (partner 2 µM)
In short: as §1

Row | Cell Line | relative viability (TPCA-1 + Trametinib; first compound 0.04 µM) | relative viability (TPCA-1 + Trametinib; first compound 0.1265 µM) | relative viability (TPCA-1 + Trametinib; first compound 0.4 µM) | relative viability (TPCA-1 + Trametinib; first compound 1.265 µM) | relative viability (TPCA-1 + Trametinib; first compound 4 µM) | relative viability (TPCA-1 + Olaparib; first compound 0.04 µM) | relative viability (TPCA-1 + Olaparib; first compound 0.1265 µM) | relative viability (TPCA-1 + Olaparib; first compound 0.4 µM) | relative viability (TPCA-1 + Olaparib; first compound 1.265 µM) | relative viability (TPCA-1 + Olaparib; first compound 4 µM) | relative viability ([1]; first compound 0.2 µM) | relative viability ([1]; first compound 0.6325 µM) | relative viability ([1]; first compound 2 µM) | relative viability ([1]; first compound 20 µM) | relative viability (Lestaurtinib + Lapatinib; first compound 0.005 µM) | relative viability (Lestaurtinib + Lapatinib; first compound 0.01581 µM) | relative viability (Lestaurtinib + Lapatinib; first compound 0.05 µM) | relative viability (Lestaurtinib + Lapatinib; first compound 0.1581 µM) | relative viability (Lestaurtinib + Lapatinib; first compound 0.5 µM) | relative viability ([1]; first compound 6.325 µM)
1 | NCI-H1651 | 0.894 | 0.799 | 0.838 | 0.824 | 0.787 | 0.192 | 0.177 | 0.185 | 0.171 | 0.134 | 1.11 | 0.899 | 1.03 | 0.975 | 0.756 | 0.93 | 0.715 | 0.636 | 0.211 | –
2 | NCI-H1666 | 0.838 | 0.7 | 0.879 | 0.804 | 0.787 | 0.767 | 0.673 | 0.71 | 0.757 | 0.768 | 1.18 | 0.936 | 0.972 | 0.852 | 0.732 | 1.2 | 0.51 | 0.556 | 0.277 | 0.712
3 | NCI-H1734 | 0.754 | 0.598 | 0.7 | 0.644 | 0.628 | 0.648 | 0.559 | 0.692 | 0.561 | 0.463 | 0.725 | 0.666 | 0.713 | 0.682 | 1.09 | 1.22 | 0.808 | 0.895 | 0.199 | 0.588
4 | NCI-H1755 | 0.846 | 0.716 | 0.72 | 0.714 | 0.591 | 0.778 | 0.912 | 0.877 | 0.853 | 0.672 | 0.951 | 0.963 | 1 | 0.929 | 1.01 | 1.1 | 0.907 | 0.39 | 0.232 | 0.796
5 | NCI-H1792 | 0.489 | 0.333 | 0.394 | 0.374 | 0.243 | 0.432 | 0.281 | 0.382 | 0.352 | 0.202 | 0.803 | 0.763 | 0.711 | 0.697 | 0.779 | 1.05 | 0.56 | 0.653 | 0.244 | –
6 | NCI-H1793 | 0.466 | 0.473 | 0.4 | 0.451 | 0.384 | 0.982 | 0.735 | 1.1 | 0.821 | 0.546 | 0.64 | 0.656 | 0.763 | 0.559 | 0.927 | 0.907 | 0.467 | 0.441 | 0.235 | 0.696
7 | NCI-H1915 | 0.343 | 0.272 | 0.286 | 0.279 | 0.263 | 0.28 | 0.266 | 0.26 | 0.274 | 0.219 | 1.05 | 1.06 | 1.09 | 1.03 | 0.971 | 1.12 | 0.922 | 0.82 | 0.294 | 0.976
8 | NCI-H1944 | 0.423 | 0.373 | 0.426 | 0.355 | 0.294 | 0.482 | 0.424 | 0.436 | 0.425 | 0.336 | 0.864 | 0.8 | 0.855 | 0.818 | 0.924 | 0.733 | 0.691 | 0.58 | 0.571 | 0.713
9 | NCI-H1975 | 0.358 | 0.365 | 0.392 | 0.43 | 0.147 | 0.843 | 0.72 | 0.806 | 0.735 | 0.6 | 0.736 | 0.627 | 0.617 | 0.62 | 0.902 | 0.812 | 0.475 | 0.422 | 0.155 | 0.592
10 | NCI-H1993 | 0.545 | 0.563 | 0.563 | 0.423 | 0.425 | 1.23 | 1.03 | 0.958 | 1.07 | 0.99 | 0.698 | 0.655 | 0.633 | 0.637 | 0.805 | 0.848 | 0.678 | 0.595 | 0.602 | 0.703
11 | NCI-H2009 | 0.309 | 0.249 | 0.303 | 0.321 | 0.211 | 0.697 | 0.733 | 0.626 | 0.753 | 0.817 | 0.991 | 1.2 | 1.16 | 1.13 | 0.959 | 0.942 | 0.807 | 0.755 | 0.15 | 1.14
12 | NCI-H2023 | 0.588 | 0.352 | 0.556 | 0.487 | 0.426 | 0.633 | 0.445 | 0.581 | 0.516 | 0.411 | 0.706 | 0.595 | 0.63 | 0.619 | 0.987 | 0.753 | 0.503 | 0.22 | 0.0798 | 0.559
13 | NCI-H2085 | – | 0.613 | 0.655 | 0.532 | 0.514 | – | 0.74 | 0.738 | 0.839 | 0.683 | 1.22 | 1.02 | 1.04 | 0.97 | 0.812 | 0.89 | 0.871 | 0.667 | 0.433 | 0.785
14 | NCI-H2087 | 0.201 | 0.163 | 0.231 | 0.152 | 0.139 | 0.711 | 0.588 | 0.541 | 0.546 | 0.364 | 1.24 | 1.14 | 1.04 | 1.11 | 1.31 | 1.05 | 0.858 | 0.693 | 0.205 | 0.917
15 | NCI-H2126 | 0.534 | 0.528 | 0.58 | 0.538 | 0.555 | 0.951 | 0.924 | 0.911 | 0.875 | 0.88 | 0.785 | 0.833 | 0.805 | 0.786 | 0.821 | 0.901 | 0.613 | 0.81 | 0.552 | 0.69
16 | NCI-H2170 | 0.903 | 0.907 | 0.937 | 0.866 | 0.455 | 0.668 | 0.568 | 0.65 | 0.508 | 0.439 | 0.888 | 0.775 | 0.758 | 0.749 | 0.267 | 0.248 | 0.273 | 0.238 | 0.201 | 0.638
